Measurements as given in EPA's ToxValDB 9.5.
Where “and” joins values, the source holds several entries; their conditions need not be identical. Equal values may be shown once.

Tests used:
Rattus norvegicus [1] = conditions: for LD50: acute
Oryctolagus sp. = conditions: acute, dermal
Mus musculus [2] = experiment: LD0; higher = less toxic; conditions: acute; injection; Intraperitoneal
Rattus norvegicus [3] = conditions: subchronic, oral, gavage, M/F
Mus musculus [4] = conditions: subchronic; duration: 13 weeks; oral; gavage; B6C3F1
Rattus norvegicus [5] = experiment: LC0; higher = less toxic; conditions: acute; inhalation
Homo sapiens [6] = conditions: clinical; duration: 2 weeks; oral; Endocrine
Homo sapiens [7] = conditions: clinical, duration: 14 days, oral, M, hematological
Cavia porcellus [8] = conditions: chronic; oral; M/F; Guinea Pig; increased relative liver weight
Rattus norvegicus [9] = conditions: Hershberger, duration: 10 days, oral, gavage, active + Antiandrogenic + anti-androgenic + significant increase in liver wt at 100 and greater / significant decrease in AST and increase …
Rattus norvegicus [10] = conditions: developmental, oral, gavage, M, Wistar, generation: F1
Chalcophaps sp. = conditions: oral
Mus musculus [11] = conditions: repeat dose other; oral
Rattus norvegicus [12] = conditions: M/F
Mus musculus [13] = conditions: developmental; duration: 20 days; oral; gavage; F; CD1; developmental
Rattus norvegicus [14] = conditions: subchronic, oral, M/F
Cricetulus sp. = conditions: subchronic; duration: 13 weeks; inhalation; intermittent; Hamster; Nasal cavity: Olfactory degeneration
Rattus norvegicus [15] = conditions: subchronic; duration: 13 weeks; oral; gavage; Liver: Hepatotoxicity
Gallus sp. [16] = conditions: subchronic; duration: 90 days; oral; F; ataxia, delayed neurotoxicity and weight loss
Gallus sp. [17] = conditions: subchronic; duration: 3 months; oral; capsule; Nervous system: Ataxia + Nervous system: Delayed neurotoxicity + Whole body: Decreased weight
Cavia porcellus [18] = conditions: subchronic; duration: 90 days; oral; M/F; Guinea Pig; ototoxicity
Mouse, Rat = conditions: subchronic; duration: 90 days; inhalation; intermittent; Adrenal: Lesions + Blood: Hematological effects + Kidney: Lesions + Liver: Lesions
Homo sapiens [19] = experiment: LD100; higher = less toxic; conditions: acute; oral
Canidae [20] = conditions: subchronic; duration: 13 weeks; oral; diet; M/F; Dog Other; Male reproductive toxicity and other effects (including decreased body weight gain), increased liver and kidney weights
Dog, Rat = conditions: subchronic; duration: 13 weeks; oral; diet; Kidney: Effects + Liver: Effects
Anatidae = conditions: oral
Monkey = conditions: chronic; duration: 5 years; inhalation; M/F; Rhesus; respiratory
Canidae [21] = conditions: subchronic, duration: 5 weeks, inhalation, unknown, renal
[22] = duration: 90 days, diet, increased liver and kidney weight

CCCCC(CC)COP(=O)(O)OCC(CC)CCCC (configuration not stated) [Bis(2-ethylhexyl) phosphate]
LD50 (Rattus norvegicus [1]; injection, Intraperitoneal): ≥ 50 mg/kg and ≤ 100 mg/kg
LD50 (Rattus norvegicus [1]; oral): 4740 mg/kg
LD50 (Rattus norvegicus [1]; oral, gavage, Wistar): 1400 mg/kg
LD50 (Oryctolagus sp.): 1200 mg/kg
LD50 (Oryctolagus sp.; occlusive, New Zealand): > 2000 mg/kg
LD0 (Mus musculus [2]): 63 mg/kg

O=C(O)CCl [Chloroacetic acid]
NOEL (Rattus norvegicus [3]; duration: 13 weeks, Fischer 344, Deaths + Body Weight Changes: decrease + Blood Chemistry: Ch E decrease, Ca decrease, TP decrease + Absolute Organ Weight: Heart decrease, …): < 30 mg/kg-day
NOAEL (Rattus norvegicus [1]; chronic, duration: 208 days, oral, diet, M, Wistar): 25 mg/kg-day
NOAEL (Rattus norvegicus [1]; subchronic, duration: 13 weeks, oral, gavage, Fischer 344): 30 mg/kg-day
NOAEL (Mus musculus [4]): 100 mg/kg-day
LC0 (Rattus norvegicus [5]): 0.005 mg/L

[Co] [Cobalt]
LOAEL (Homo sapiens [6]): 1 mg/kg-day
LOAEL (Homo sapiens [7]): 1 mg/kg-day
NOAEL (Homo sapiens [7]; capsule): 0.8 mg/kg-day

CCCCC(CC)COC(=O)c1ccccc1C(=O)OCC(CC)CCCC (configuration not stated) [Di(2-ethylhexyl) phthalate]
LOAEL (Cavia porcellus [8]): 19 mg/kg-day
LOEL (Rattus norvegicus [9]; Sprague-Dawley): 300 mg/kg-day and 100 mg/kg-day
LOEL (Rattus norvegicus [9]; Wistar): 300 mg/kg-day and 200 mg/kg-day
NOEL (Rattus norvegicus [9]; Wistar): 100 mg/kg-day
LOEL (Rattus norvegicus [10]; F1: AGD (mm)): 405 mg/kg-day
NOEL (Rattus norvegicus [10]; F1: AGD (mm)): 135 mg/kg-day
NOEL (Rattus norvegicus [10]; F1: Hypospadias (% litters affected) + F1: Hypospadias (litters affected incidence)): 405 mg/kg-day
NOAEL (Chalcophaps sp.): 1.1 mg/kg-day
LOAEL (Mus musculus [11]): 183 mg/kg-day
NOAEL (Mus musculus [11]): 18.3 mg/kg-day
LOAEL (Rattus norvegicus [12]; developmental, duration: 9 weeks, inhalation, whole body, Wistar, developmental): 4.79 mg/m3
LOAEL (Rattus norvegicus [12]; developmental, duration: 12 days, oral, gavage, Wistar, developmental): 1 mg/kg-day
LOAEL (Mus musculus [13]): 0.04 mg/kg-day

O=Cc1ccco1 [Furfural]
NOEL (Rattus norvegicus [3]; duration: 13 weeks, Fischer 344, Deaths + Absolute Organ Weight: Kidney increase, Liver increase + Relative Organ Weight: Kidney increase, Liver increase + Histopathology: …): < 11 mg/kg-day
LOAEL (Rattus norvegicus [14]; hepatocellular vacuolization): 11 mg/kg-day
NOAEL (Cricetulus sp.): 78.6 mg/m3
LOAEL (Rattus norvegicus [15]): 7.9 mg/kg-day

CCCCSP(SCCCC)SCCCC [Merphos]
LOAEL (Gallus sp. [16]): 0.5 mg/kg-day
NOEL (Gallus sp. [16]): 0.1 mg/kg-day
NOEL (Gallus sp. [17]): 0.1 mg/kg-day
LD50 (Rattus norvegicus [1]; oral, gavage, Crl): 2480 mg/kg

NC[C@@H]1O[C@H](O[C@H]2[C@@H](O)[C@H](O[C@@H]3[C@@H](O)[C@H](N)C[C@H](N)[C@H]3O[C@H]3O[C@H](CN)[C@@H](O)[C@H](O)[C@H]3N)O[C@@H]2CO)[C@H](N)[C@@H](O)[C@@H]1O [Neomycin]
NOEL (Cavia porcellus [18]): 6 mg/kg-day

O=[N+]([O-])c1ccccc1 [Nitrobenzene]
NOEL (Rattus norvegicus [3]; Fischer 344, Deaths + Body Weight Changes: decrease + Food Consumption: decrease + Hematology: RBC decrease, WBC increase, , Hgb decrease, , Hct decrease…): < 5 mg/kg-day
NOEL (Rattus norvegicus [3]; Sprague-Dawley, Deaths + Clinical Observation: Piloerection, salivation, emacation Anemia, torticollis, rotating movement, abnormal gait + Body Weight …): < 20 mg/kg-day
LOAEL (Mouse, Rat): 25 mg/m3
LOAEL (Rattus norvegicus [12]; subchronic, duration: 90 days, inhalation, F344 / Sprague-Dawley, hematological): 25.2 mg/m3

CCCCCCCCCCCCCCCCCC(=O)O [Octadecanoic acid]
LD50 (Rattus norvegicus [1]; oral): 4600 mg/kg
LD100 (Homo sapiens [19]): 14300 mg/kg

Cc1cc(Cl)ccc1OCCCC(=O)O [Thitrol]
LEL (Rattus norvegicus [14]; [22]): 40 mg/kg-day
NOEL (Rattus norvegicus [14]; [22]): 12 mg/kg-day
LEL (Canidae [20]): 40 mg/kg-day
NOEL (Canidae [20]): 12 mg/kg-day
NOEL (Dog, Rat): 12 mg/kg-day

[U] [Uranium]
NOAEL (Anatidae): 16 mg/kg-day
LOAEL (Monkey): 5.1 mg/m3
LOAEL (Rattus norvegicus [12]; chronic, duration: 91 days, oral, drinking water, Sprague-Dawley, renal): 0.06 mg/kg-day
LOAEL (Canidae [21]; not reported): 0.15 mg/m3
NOAEL (Canidae [21]; unspecified): 1.1 mg/m3
